Data from ChEMBL document CHEMBL6114966, “Discovery of maleimide derivatives as m6A demethylase ALKBH5 inhibitors” (Bioorg Med Chem, 2025).
Activity calls are given as the source filed them. The rule behind the calls is not given here.

How the values were obtained:
RNA demethylase ALKBH5 [1] = target: T1, RNA demethylase ALKBH5 (Homo sapiens, UniProt Q6P6C2); assay: Inhibition of ALKBH5 (unknown origin) using 5'-ATTGTCA(m6A)CAGCAGA-FAM-3' as substrate measured after 30 mins by fluorescence polarization assay
Target sequence in this assay (Q6P6C2 whole entry): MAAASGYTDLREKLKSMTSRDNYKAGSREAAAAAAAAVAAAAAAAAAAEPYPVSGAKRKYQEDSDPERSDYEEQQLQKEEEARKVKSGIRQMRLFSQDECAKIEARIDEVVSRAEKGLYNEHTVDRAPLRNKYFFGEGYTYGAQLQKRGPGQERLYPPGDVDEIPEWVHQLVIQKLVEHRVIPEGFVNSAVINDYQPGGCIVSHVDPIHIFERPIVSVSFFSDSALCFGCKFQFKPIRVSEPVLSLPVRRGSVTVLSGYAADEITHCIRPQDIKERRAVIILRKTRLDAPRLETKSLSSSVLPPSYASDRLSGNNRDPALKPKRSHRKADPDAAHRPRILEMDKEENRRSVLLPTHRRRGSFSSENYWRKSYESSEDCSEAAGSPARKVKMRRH

RNA demethylase ALKBH5 [2] = target: T1, RNA demethylase ALKBH5; assay: Inhibition of ALKBH5 (unknown origin) using 5'-TAGACATTGCCATTCTCGATAGG (m6A) TCCGGTCAAACCTAGAC GAATTCCA-3' as substrate measured after 2 hrs in presence of 2-OG by PAGE based restriction enzyme digestion assay
Target sequence in this assay (Q6P6C2 whole entry): as the sequence (Q6P6C2 whole entry) above

RNA demethylase ALKBH5 [3] = target: T1, RNA demethylase ALKBH5; assay: Binding affinity to ALKBH5 (unknown origin) assessed as change in melting temperature at 100 uM measured after 30 mins by thermal shift assay
Target sequence in this assay (Q6P6C2 2-394 limits assumed): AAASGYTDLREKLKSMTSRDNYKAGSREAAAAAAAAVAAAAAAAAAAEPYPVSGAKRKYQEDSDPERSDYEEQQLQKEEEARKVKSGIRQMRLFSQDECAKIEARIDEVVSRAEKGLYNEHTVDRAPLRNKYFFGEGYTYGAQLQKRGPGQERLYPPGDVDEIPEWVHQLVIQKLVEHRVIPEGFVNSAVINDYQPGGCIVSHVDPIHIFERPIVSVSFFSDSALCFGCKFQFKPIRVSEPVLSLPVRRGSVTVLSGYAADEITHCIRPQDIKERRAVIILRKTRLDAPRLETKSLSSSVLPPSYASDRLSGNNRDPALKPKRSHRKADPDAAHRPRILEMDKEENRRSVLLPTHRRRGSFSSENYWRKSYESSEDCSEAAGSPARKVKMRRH

RNA demethylase ALKBH5 [4] = target: T1, RNA demethylase ALKBH5; assay: Binding affinity to ALKBH5 (unknown origin) assessed as change in melting temperature at 50 uM measured after 30 mins by thermal shift assay
Target sequence in this assay (Q6P6C2 2-394 limits assumed): as above

RNA demethylase ALKBH5 [5] = target: T1, RNA demethylase ALKBH5; assay: Binding affinity to ALKBH5 (unknown origin) assessed as change in melting temperature at 25 uM measured after 30 mins by thermal shift assay
Target sequence in this assay (Q6P6C2 2-394 limits assumed): as above

RNA demethylase ALKBH5 [6] = target: T1, RNA demethylase ALKBH5; assay: Inhibition of ALKBH5 (unknown origin) at 20 to 100 uM using 5'-TAGACATTGCCATTCTCGATAGG (m6A) TCCGGTCAAACCTAGAC GAATTCCA-3' as substrate measured after 2 hrs in presence of 2-OG by PAGE based restriction enzyme digestion assay; conditions: dose 20-100 µM
Target sequence in this assay (Q6P6C2 2-394 limits assumed): as the sequence (Q6P6C2 2-394 limits assumed) above

RNA demethylase ALKBH5 [7] = target: T1, RNA demethylase ALKBH5; assay: Binding affinity to ALKBH5 (unknown origin) by 1H NMR STD analysis
Target sequence in this assay (Q6P6C2 2-394 limits assumed): as the sequence (Q6P6C2 2-394 limits assumed) above

[8] = target: T2, Alpha-ketoglutarate-dependent dioxygenase FTO (Homo sapiens, UniProt Q9C0B1); assay: Inhibition of FTO (unknown origin) using 5'-TAGACATTGCCATTCTCGATAGG (m6A) TCCGGTCAAACCTAGAC GAATTCCA-3' as substrate measured after 2 hrs in presence of 2-OG by PAGE based restriction enzyme digestion assay
Target sequence in this assay (Q9C0B1 whole entry): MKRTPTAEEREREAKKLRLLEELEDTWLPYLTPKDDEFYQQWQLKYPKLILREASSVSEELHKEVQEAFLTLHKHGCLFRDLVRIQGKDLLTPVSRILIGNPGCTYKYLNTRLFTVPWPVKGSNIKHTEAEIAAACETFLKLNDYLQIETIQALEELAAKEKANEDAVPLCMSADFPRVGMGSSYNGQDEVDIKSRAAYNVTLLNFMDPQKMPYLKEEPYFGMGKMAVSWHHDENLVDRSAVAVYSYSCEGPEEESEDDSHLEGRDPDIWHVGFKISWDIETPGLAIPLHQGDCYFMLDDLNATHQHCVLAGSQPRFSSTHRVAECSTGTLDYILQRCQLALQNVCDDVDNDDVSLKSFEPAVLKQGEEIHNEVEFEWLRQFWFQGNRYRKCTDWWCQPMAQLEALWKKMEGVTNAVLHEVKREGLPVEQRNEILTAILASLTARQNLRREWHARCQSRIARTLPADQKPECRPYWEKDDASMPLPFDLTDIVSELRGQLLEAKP

[9] = target: T2, Alpha-ketoglutarate-dependent dioxygenase FTO; assay: Inhibition of FTO (unknown origin) at 25 to 200 uM using 5'-TAGACATTGCCATTCTCGATAGG (m6A) TCCGGTCAAACCTAGAC GAATTCCA-3' as substrate measured after 2 hrs in presence of varying levels of 2-OG by PAGE based restriction enzyme digestion assay; conditions: dose 25-200 µM
Target sequence in this assay (Q9C0B1 whole entry, looked up): as the sequence (Q9C0B1 whole entry) above

MV4-11 = assay: Antiproliferative activity against human MV4-11 cells assessed as reduction in cell viability measured after 72 hrs by CellTiter-Lumi luminescence assay; assay type: functional, cell-based; conditions: MV4-11, 72 h
RNA demethylase ALKBH5 [10] = target: T1, RNA demethylase ALKBH5; assay: Inhibition of ALKBH5 in human MV4-11 cells assessed as increase in intracellular m6A level by dot blot assay; assay type: cell-based; conditions: dose 20-40 µM
Target sequence in this assay (Q6P6C2 2-394 limits assumed): as the sequence (Q6P6C2 2-394 limits assumed) above

RNA demethylase ALKBH5 [11] = target: T1, RNA demethylase ALKBH5; assay: Inhibition of ALKBH5 in human MV4-11 cells assessed as down regulation of TACC3 mRNA expression measured after 48 hrs by RT-qPCR analysis; assay type: cell-based; conditions: dose 10-40 µM
RNA demethylase ALKBH5 [12] = target: T1, RNA demethylase ALKBH5; assay: Inhibition of ALKBH5 in human MV4-11 cells assessed as down regulation of AXL mRNA expression measured after 48 hrs by RT-qPCR analysis; assay type: cell-based; conditions: dose 10-40 µM
RNA demethylase ALKBH5 [13] = target: T1, RNA demethylase ALKBH5; assay: Inhibition of ALKBH5 in human MV4-11 cells assessed as upregulation of p21 mRNA expression measured after 48 hrs by RT-qPCR analysis; assay type: cell-based; conditions: dose 10-40 µM
RNA demethylase ALKBH5 [14] = target: T1, RNA demethylase ALKBH5; assay: Inhibition of ALKBH5 in human MV4-11 cells assessed as down regulation of TACC3 expression measured after 48 hrs by Western blot analysis; assay type: cell-based; conditions: dose 5-40 µM

| SMILES | IC50 (RNA demethylase ALKBH5 [1]) | other results |
| --- | --- | --- |
| NS(=O)(=O)c1cccc(NC2=C(Cl)C(=O)N(c3ccc(Cl)c(Cl)c3)C2=O)c1 | > 200 µM | – |
| N#Cc1ccc(N2C(=O)C(Cl)=C(Nc3ccccc3C(=O)O)C2=O)cc1 | > 200 µM | – |
| O=C(O)c1ccccc1NC1=C(Cl)C(=O)N(c2cccc(Cl)c2)C1=O | 29.6 µM | – |
| O=C(O)c1ccccc1NC1=C(Cl)C(=O)N(c2cccc(I)c2)C1=O | 37 µM | – |
| O=C(O)c1ccccc1NC1=C(Cl)C(=O)N(c2cccc(O)c2)C1=O | > 200 µM | – |
| O=C(O)c1ccccc1NC1=C(Cl)C(=O)N(c2ccccc2Cl)C1=O | 47.8 µM | – |
| O=C(O)c1ccccc1NC1=C(Cl)C(=O)N(c2ccc(O)cc2)C1=O | > 200 µM | – |
| COc1ccc(N2C(=O)C(Cl)=C(Nc3ccccc3C(=O)O)C2=O)cc1 | > 200 µM | – |
| O=C(O)c1ccccc1NC1=C(Cl)C(=O)N(c2ccc(I)c(Br)c2)C1=O | 9.57 µM | – |
| CC(=O)c1ccc(N2C(=O)C(Cl)=C(Nc3ccccc3C(=O)O)C2=O)cc1 | 34.1 µM | – |
| O=C1C(Cl)=C(Nc2ccccc2)C(=O)N1c1ccc(Cl)c(Cl)c1 | 45.4 µM | IC50 (RNA demethylase ALKBH5 [2]): < 100 µM; ΔTm (RNA demethylase ALKBH5 [3]): -2.4 °C; ΔTm (RNA demethylase ALKBH5 [4]): -1.3 °C; ΔTm (RNA demethylase ALKBH5 [5]): -1.2 °C |
| Cc1ccc(C(=O)O)c(NC2=C(Cl)C(=O)N(c3ccc(Br)c(Br)c3)C2=O)c1 | > 200 µM | – |
| O=C(O)c1ccc(F)cc1NC1=C(Cl)C(=O)N(c2ccc(Br)c(Br)c2)C1=O | 5.34 µM | – |
| O=C(O)c1ccccc1NC1=C(Cl)C(=O)N(c2ccc(C(F)(F)F)c(Br)c2)C1=O | 16.9 µM | IC50 (RNA demethylase ALKBH5 [2]): 25.9 µM; inhibition (RNA demethylase ALKBH5 [6]): Active |
| Cc1cc(N2C(=O)C(Cl)=C(Nc3ccccc3C(=O)O)C2=O)ccc1C(F)(F)F | > 200 µM | – |
| O=C(O)c1ccccc1NC1=C(Cl)C(=O)N(c2ccc([N+](=O)[O-])c(Br)c2)C1=O | 16.5 µM | – |
| Cc1ccc(N2C(=O)C(Cl)=C(Nc3ccccc3C(=O)O)C2=O)cc1Br | 32.9 µM | – |
| Cc1cc([N+](=O)[O-])c(Br)cc1N1C(=O)C(Cl)=C(Nc2ccccc2C(=O)O)C1=O | > 200 µM | – |
| N#Cc1ccc(Br)cc1N1C(=O)C(Cl)=C(Nc2ccccc2C(=O)O)C1=O | 69.1 µM | – |
| O=C(O)c1ccccc1NC1=C(Cl)C(=O)N(c2ccc(I)c(Cl)c2)C1=O | 2.32 µM | IC50 (RNA demethylase ALKBH5 [2]): 11.2 µM; inhibition (RNA demethylase ALKBH5 [6]): Active; Activity (RNA demethylase ALKBH5 [7]): Active; IC50 [8]: > 250 µM; inhibition [9]: Active; IC50 (MV4-11): 31.5 µM; inhibition (RNA demethylase ALKBH5 [10]): Dose-dependent-effect; inhibition (RNA demethylase ALKBH5 [11]): Dose-dependent-effect; inhibition (RNA demethylase ALKBH5 [12]): Dose-dependent-effect; inhibition (RNA demethylase ALKBH5 [13]): Dose-dependent-effect; inhibition (RNA demethylase ALKBH5 [14]): Dose-dependent-effect |
| N#Cc1ccc(N2C(=O)C(Cl)=C(Nc3ccccc3C(=O)O)C2=O)cc1Br | 18.7 µM | – |
| N#Cc1cc(C(F)(F)F)ccc1N1C(=O)C(Cl)=C(Nc2ccccc2C(=O)O)C1=O | > 200 µM | – |
| Cc1ccc(Br)cc1N1C(=O)C(Cl)=C(Nc2ccccc2C(=O)O)C1=O | > 200 µM | – |
| C#Cc1cccc(N2C(=O)C(Cl)=C(Nc3ccccc3C(=O)O)C2=O)c1 | > 200 µM | – |
| O=C(O)c1ccccc1NC1=C(Cl)C(=O)N(c2ccc(Br)c(Br)c2)C1=O | 17.4 µM | – |
| COC(=O)c1cccc(NC2=C(Cl)C(=O)N(c3ccc(Cl)c(Cl)c3)C2=O)c1 | > 200 µM | – |
| O=C(O)c1ccccc1NC1=C(Cl)C(=O)N(c2cccc(Br)c2)C1=O | 21.3 µM | – |
| O=C(O)c1ccccc1NC1=C(Cl)C(=O)N(c2ccc(Cl)c(Cl)c2)C1=O | 20.6 µM | – |
